Measurements reported in US11040958B2, “Triazole antimicrobial derivative, pharmaceutical composition and use thereof” (priority 2017, dated 2021).
Where two headings read alike, the source gives them in different places.

Experiments:
[1] = In vitro metabolic stability in human intestinal S9; type: in vitro ADME; details: 37°C, S9 1 mg/mL, compound 10 μM, NADPH regeneration system
Protocol: (§1) The two reaction systems were set up three samples in parallel, while each sample was taken in an amount of 100 μL at 1 min, 2 mins, 5 mins, 15 mins, and 30 mins after the reaction, added to the centrifuge tube containing 400 μL of 0° C. pre-cooled internal standard working fluid and terminated the reaction. The sample was mixed by vortex for 1 min, centrifuged at 10,000×g for 10 mins in a 4° C. pre-cooled high-speed centrifuge. The supernatant was taken for HPLC detection. […] Concentration of mother liquor of compounds: 1 mM […] [table]

[2] = Solubility test in deionized water (HPLC, external calibration); type: physicochemical; details: for solubility at 30 min: 25 °C, thermodynamic from solid
Protocol: Experimental condition: 25±2° C.
Dissolving medium: deionized water
Experimental method: 1 mg voriconazole and appropriate amount of each compound were weighed, placed in 1 ml deionized water separately, shaken vigorously for 30 s every 5 mins for 30 mins.

[3] = In vitro metabolic stability in rat intestinal S9; type: in vitro ADME; details: 37°C, S9 1 mg/mL, compound 10 μM, NADPH regeneration system
Protocol: as §1

[4] = In vitro metabolic stability in rat plasma; type: in vitro ADME; details: 37°C, compound 10 μM
Protocol: The two reaction systems were set up three samples in parallel, while each sample was taken in an amount of 100 μL at 1 min, 2 mins, 5 mins, 15 mins, and 30 mins after the reaction, added to the centrifuge tube containing 400 μL of 0° C. pre-cooled internal standard working fluid and terminated the reaction. The sample was mixed by vortex for 1 min, centrifuged at 10,000×g for 10 mins in a 4° C. pre-cooled high-speed centrifuge. The supernatant was taken for HPLC detection. […] Concentration of mother liquor of compounds: 1 mM […]

[5] = Solid stability test (25°C, RH 60%, 30 days); type: physicochemical; details: 25°C±2°C, relative humidity 60%±2%
Protocol: Experimental conditions: 25° C.±2° C., relative humidity 60%±2%
Experimental instrument: Agilent 1260 HPLC; chamber for stability test
Experimental method: each compound of the present disclosure was packaged (the inner packaging material was a penicillin bottle; the outer packaging material was a double-layer aluminum foil bag, and a desiccant was added inside and outside the package), placed in the chamber for stability test, at a temperature of 25° C.±2° C. and a relative humidity of 60%±2%. The degradation situation of the compounds for 30 days was examined. The contents of total impurities before and after 30 days of each compound were compared and the results were as follows: […]

[6] = system: Candida albicans ATCC10231; experiment: Systemic fungal infection in mice, intravenous administration, survival; type: in vivo; details: ICR mice, tail vein, 5 mg/kg (calculated as voriconazole) once daily for 5 days
Protocol: (§2) ICR mice, weighing 18-22 g, male, provided by the Hubei Experimental Animal Center.
(§3) The standard strain Candida albicans was purchased from the American Type Culture Collection, and the strain number was ATCC10231.
Before the experiment, a small amount of Candida albicans was picked from the SDA medium preserved at 4° C. by inoculation circle, and inoculated into 1 ml YPD (Yeast Extract Peptone Dextrose Medium, the same below) culture medium, under shake cultivation at 30° C., 200 rpm, activated for 16 hours to make the fungus in the late stage of the exponential growth phase. Blood cell counting plate was used to count. The concentration of the broth was adjusted to 1*10^3-5*10^3 CFU/ml with RPMI1640 (Roswell Park Memorial Institute 1640, the same below) culture medium. The Candida albicans monoclone on the SDA plate was picked and inoculated into 1 ml YPD medium, cultured at 35° C., 200 rpm for 16 hours to the late exponential growth phase, 1% of which was then inoculated in fresh medium for 6 hours, centrifuged at 1000×g for 5 mins, washed three times with saline until the supernatant was colorless, while hemocytometer was used to count. The cell concentration was adjusted to 5*10^6/ml. The tail vein injection of 0.1 ml/10 g was carried out to cause a systemic fungal infection in mice. The mice were randomized into groups of 10 each. Since voriconazole was insoluble in vehicle (physiological saline), the mice of the voriconazole group in the test were injected a commercially available voriconazole (Pfizer, product lot number Z467001), that is, sulfobutyl ether-β-cyclodextrin used as a solubilizer, while other groups used physiological saline as a solvent. After establishing a systemic fungal infection model in mice for 2 hours, each administration group was administered with 5 mg/kg (calculated as voriconazole) drug in the tail vein, with the volume for administration of 0.1 ml/10 g. The mice in the model group were administered 0.1 ml/10 g of 0.9% sodium chloride solution, once daily, for 5 consecutive days. The death situation of the mice was inspected and the survival time was recorded. After a total of 7 days of observation, all dead mice were treated with fire using ethanol.

[7] = Pharmacokinetics after single intravenous administration in rats (plasma voriconazole); details: rat, in vivo, 2.5 mg/kg
Protocol: Dosage for administration: 2.5 mg/kg (calculated as voriconazole)
Dosing volume for administration: 2.5 ml/kg
Drug concentration: 1 mg/mL (calculated as voriconazole)
Route of administration: tail vein injection Experimental animals: SD rats, SPF grade, weighing 180-220 g, half male and half female; the SD rats were randomized into groups of 6 animals each, three males and three females in each group. Experimental method: Blood samples were collected at different time points after tail vein administration, and the plasma concentrations of voriconazole were measured.

[8] = Pharmacokinetics after single gastrointestinal (gavage) administration in rats (plasma voriconazole); type: in vivo; details: SD rats, 2.5 mg/kg (calculated as voriconazole)
Protocol: Dosing volume for administration: 10 ml/kg
Solvent medium for administration: except for the positive voriconazole group using CMC-Na, the other groups using normal saline
Route of administration: gavage

[9] = system: Candida albicans ATCC10231; experiment: Systemic fungal infection in mice, administration by gavage, survival; type: in vivo; details: ICR mice, 5 mg/kg (calculated as voriconazole) once daily for 5 days
Protocol: as §2, §3
Before the experiment, a small amount of Candida albicans was picked from the SDA medium preserved at 4° C. by inoculation circle, inoculated into 1 ml of YPD culture medium, and cultured at 30° C. while being shaken at 200 rpm for 16 hours to make the fungus in the late stage of exponential growth. Blood cell counting plate was used to count, and the concentration of the broth was adjusted to 1*10^3−5*10^3 CFU/ml with RPMI1640 medium. The Candida albicans monoclone on the SDA plate was picked, inoculated into 1 ml YPD medium, cultured at 35° C., 200 rpm for 16 hours to the late exponential growth phase, 1% of which was then inoculated in fresh medium for 6 hours, centrifuged at 1000×g for 5 mins, washed three times with saline until the supernatant was colorless, while hemocytometer was used to count. The cell concentration was adjusted to 5*10^6/ml. The tail vein injection of 0.1 ml/10 g was carried out to cause a systemic fungal infection in mice. The mice were randomized into groups of 10 each. Voriconazole used was in the form of a suspension prepared with CMC-Na (Shanghai Panhong Chemical Technology Co., Ltd.), while other tested drugs were dissolved in saline and sonicated until clarified for administration. After establishing a systemic fungal infection model in mice for 2 hours, each group was administered by gavage with 5 mg/kg (calculated as voriconazole) drug, with the volume for administration of 0.1 ml/10 g. The mice in the model group were administered 0.1 ml/10 g of 0.9% sodium chloride solution, once daily, for 5 consecutive days. The death situation of the mice was inspected and the survival time was recorded. After a total of 7 days of observation, all dead mice were treated with fire using ethanol.

[10] = In vitro metabolic stability in human plasma; type: in vitro ADME; details: human, plasma; 37°C, compound 10 μM; read-out: Human plasma T1/2
Protocol: The two reaction systems were set up three samples in parallel, while each sample was taken in an amount of 100 μL at 1 min, 2 mins, 5 mins, 15 mins, and 30 mins after the reaction, added to the centrifuge tube containing 400 μL of 0° C. pre-cooled internal standard working fluid and terminated the reaction. The sample was mixed by vortex for 1 min, centrifuged at 10,000×g for 10 mins in a 4° C. pre-cooled high-speed centrifuge. The supernatant was taken for HPLC detection.

SMILES | Content increase of total impurity (25° C., placed for 30 days) [5] [%] | T1/2 [7] | Solubility ([2]; deionized water, 25±2°C) [mg/mL] | survival rate of mice, day 1 [9] [%] | survival rate of mice, day 2 [9] [%] | survival rate of mice, day 3 [9] [%] | survival rate of mice, day 4 [9] [%] | survival rate of mice, day 5 [9] [%] | survival rate of mice, day 6 [9] [%] | other results
CC(OC(=O)N(C)c1ncccc1COC(=O)[C@@H](N)CCN)[n+]1cnn(C[C@](O)(c2ccc(F)cc2F)[C@@H](C)c2ncncc2F)c1.[Cl-] (stereo partly shown) [QR16005] | – | – | – | – | – | – | – | – | – | Human intestinal S9 T1/2 [1]: 18.21 ± 2.04 min; Solubility [2]: >50 mg/mL; Rat intestinal S9 T1/2 [3]: 26.52 ± 3.69 min; Rat plasma T1/2 [4]: 8.25 ± 1.28 min
CC(OC(=O)N(C)c1ccccc1COC(=O)[C@@H](N)CCCN)[n+]1cnn(C[C@](O)(c2ccc(F)cc2F)[C@@H](C)c2ncncc2F)c1.[Cl-] (stereo partly shown) [QR16007] | 0.73 | 173 ± 73.2 min | >50 | – | – | – | – | – | – | survival rate of mice, day 1 ([6]; day 1): 100%; survival rate of mice, day 2 ([6]; day 2): 100%; survival rate of mice, day 3 ([6]; day 3): 100%; survival rate of mice, day 4 ([6]; day 4): 100%; survival rate of mice, day 5 ([6]; day 5): 100%; survival rate of mice, day 6 ([6]; day 6): 90%; AUClast [7]: 10278 ± 3225 ng·h/mL
CC(OC(=O)N(C)c1ncccc1COC(=O)[C@@H](N)CCCNC(N)=O)[n+]1cnn(C[C@](O)(c2ccc(F)cc2F)[C@@H](C)c2ncncc2F)c1.[Cl-] (stereo partly shown) [QR16009] | 0.71 | similar | >50 | 100 | 80 | 80 | 70 | 70 | 70 | AUClast [8]: 7225 ± 1310 ng·h/mL; Cmax [8]: 925 ± 121 ng/mL; T1/2 [8]: 119 ± 52.2 min; survival rate of mice, day 7 ([9]; day 7): 70%
CC(OC(=O)N(C)c1ncccc1CN)[n+]1cnn(C[C@](O)(c2ccc(F)cc2F)[C@@H](C)c2ncncc2F)c1 (stereo partly shown) [QR16022] | – | similar | – | – | – | – | – | – | – | half-life at 10 µM [10]: 26 ± 2.39 min; half-life at 10 µM ([1]; human, intestinal S9, read-out: Human intestinal S9 T1/2): 43.2 ± 1.03 min; solubility at 30 min ([2]; deionized water, 25±2°C): > 50 mg/mL; half-life at 10 µM ([3]; rat, intestinal S9, pH 7.4, read-out: Rat intestinal S9 T1/2): 56 ± 10.3 min; half-life at 10 µM ([4]; rat, plasma, read-out: Rat plasma T1/2): 29.5 ± 7.85 min
CNCc1cccnc1N(C)C(=O)OC(C)[n+]1cnn(C[C@](O)(c2ccc(F)cc2F)[C@@H](C)c2ncncc2F)c1 (stereo partly shown) [QR16023] | 2.63 | similar | – | 100 | 90 | 70 | 70 | 60 | 60 | survival rate of mice, day 7 ([9]; day 7, 5 mg/kg): same with the positive drug voriconazole group; solubility at 30 min ([2]; deionized water, 25±2°C): > 50 mg/mL
CC(OC(=O)OCCOCCOP(=O)(O)O)[n+]1cnn(C[C@](O)(c2ccc(F)cc2F)[C@@H](C)c2ncncc2F)c1 (stereo partly shown) [QR16030] | 0.94 | – | >50 | 100 | 90 | 80 | 70 | 60 | 50 | AUClast [8]: 4324 ± 1362 ng·h/mL; T1/2 [8]: 152 ± 63 min
CN[C@@H](CSC(=O)OC(C)[n+]1cnn(C[C@](O)(c2ccc(F)cc2F)[C@@H](C)c2ncncc2F)c1)C(=O)O.Cl.[Cl-] (stereo partly shown) [QR16035] | 1.21 | – | – | – | – | – | – | – | – | Human intestinal S9 T1/2 [1]: 29.12 ± 2.09 min; AUClast [7]: 8256 ± 1256 ng·h/mL; Rat intestinal S9 T1/2 [3]: 35.62 ± 8.12 min; Rat plasma T1/2 [4]: 11.85 ± 3.77 min
